What was measured:
MES-SA/Dx5 cells [1] = test: Percentage of live cells by fluorescent dye staining (DiB / EthD-1) and microscopy; type: cell-based, human
Procedure: (§1) In the present embodiment, cancer cell lines with (MES-SA/Dx5 cells; abbreviated as “Dx5” from the BCRC of Food Industry Research and Development Institute (FIRDI), Taiwan) and without (MES-SA cells from the BCRC of FIRDI) anti-cancer drug resistance were separately treated with various concentrations (0, 2.5, 5.0, 7.5, 10.0, 12.5, 15.0 μg ml^−1) of doxorubicin (doxorubicin hydrochloride; Enzo Life Sciences, CH) for 48 hours. The percentage of live cells was then evaluated by a combination of fluorescent dye staining and microscopic observation. Briefly, the drug-treated Dx5 cells were stained with the DiB cytoplasmic membrane labelling dye (Biotium, CA USA) and EthD-1 fluorescent dye (ethidium homodimer-1; Thermo Fisher Scientific, MA USA) to identify the living (blue staining), and dead (red staining) Dx5 cells, respectively. The drug-treated MES-SA cells were stained with Calcein-AM and EthD-1 fluorescent dyes (LIVE/DEAD1 Viability/Cytotoxicity Kit L-3224; Thermo Fisher Scientific, MA USA) to identify the living (green staining) and dead (red staining) cells, respectively. All the assays were performed according to the manufacturer's instructions. This was followed by microscopic observation using a fluorescence microscope (Zoom 160, OPTEM, USA). The overall viability of the cancer cells was then evaluated by determining the number of live cells relative to that of whole cells.

MES-SA/Dx5 cells [2] = test: MTT assay cell viability; type: cell-based; settings: Homo sapiens, 5.0 μg ml^−1 doxorubicin, 48 hours
Procedure: (§2) Cell viability was also evaluated by assaying the intercellular dehydrogenase activity of cells using the commonly used MTT (thiazolyl blue tetrazolium bromide; Sigma Aldrich, MO USA) assay. Briefly, the cancer cells (i.e., MES-SA and Dx5 cells) were separately treated with doxorubicin as mentioned above. The drug-treated cancer cells were then assayed for viability (%) based on the manufacturer's instructions for the MTT assay kit.

MES-SA cells [3] = test: Percentage of live cells by fluorescent dye staining (Calcein-AM / EthD-1) and microscopy; type: cell-based, human
Procedure: as §1

MES-SA cells [4] = test: MTT assay cell viability; type: cell-based, human; settings: 48 hours
Procedure: as §2

[5] = 5.0 μg ml^−1 doxorubicin for 48 hours
[6] = 5.0 μg ml^−1 doxorubicin, 48 hours

SMILES: COc1cccc2c1C(=O)c1c(O)c3c(c(O)c1C2=O)C[C@@](O)(C(=O)CO)C[C@@H]3O[C@H]1C[C@H](N)[C@H](O)[C@H](C)O1 [doxorubicin]
- dead cell percentage (MES-SA/Dx5 cells [1]; [5]): 4.5%
- percentage of live cells (MES-SA/Dx5 cells [1]; [6]): 95.5%
- viability at 5 µg/mL (MES-SA/Dx5 cells [2]): 73.5%
- dead cell percentage (MES-SA cells [3]; [5]): 73.9%
- percentage of live cells (MES-SA cells [3]; [6]): 26.1%
- viability at 5 µg/mL (MES-SA cells [4]; Homo sapiens, 5.0 μg ml^−1 doxorubicin): 2.2%
- cell viability (%) (MTT) (MES-SA cells [4]; various concentrations of doxorubicin): ~0%
